Columns and labels:
human GPR84 receptor = biological target: T1, human GPR84 receptor (Homo sapiens, UniProt Q9NQS5); test: GPR84 antagonistic effect determination (cAMP assay, forskolin and 6-OAU stimulation); format: cell-based; details: CHO stably transfected cell line highly expressing human GPR84; 2.5 μM Forskolin & 200 nM 6-OAU; cAMP readout; read-out: Antagonistic effect against GPR84, IC50
T1 construct: expressed in transfected cells; host or cells: CHO
Experimental: The antagonistic effect of the compound against GPR84 was determined in a CHO stably transfected cell line highly expressing the human GPR84 receptor. The stably transfected cells were cultured until 80% confluence; the cells were collected by trypsinization, counted, and then inoculated into a 384-well plate at 5 L/well. 10× compound working solution was prepared with 1× Stimulation Buffer. […] After the reaction was completed, the content of CAMP in the cells was quantified according to the method in the instructions of the cAMP assay kit (Perkin Elmer, Cat #TRF0263). The antagonistic effect (IC50 value) of the test compounds was calculated.

[1] = Pharmacokinetic experiment in mice; format: in vivo; details: mouse; male ICR mice, oral gavage 3 mg/kg, plasma
Experimental: For the pharmacokinetic experiment in mice, male ICR mice, 20 to 25 g, were used and fasted overnight. Three mice were taken and orally administered by gavage (3 mg/kg): blood was collected before the administration, and at 15 min, 30 min, 1 hour, 2 hours, 4 hours, 8 hours, and 24 hours after the administration. The blood samples were centrifuged at 6800 g for 6 min at 2 to 8° C., and plasma was collected and stored at −80° C. 20 μL of plasma at each time point was taken, and added with 200 μL of methanol containing 100 ng/mL internal standard. The mixture was vortexed, mixed evenly, and then centrifuged at 18000 g for 7 min at 2 to 8° ° C. 200 μL of the mixture was transferred to a 96-well injection plate for LC-MS/MS quantitative analysis. The main pharmacokinetic parameters were analyzed using WinNonlin 7.0 software with non-compartmental model.

T1 sequence (Q9NQS5 whole entry): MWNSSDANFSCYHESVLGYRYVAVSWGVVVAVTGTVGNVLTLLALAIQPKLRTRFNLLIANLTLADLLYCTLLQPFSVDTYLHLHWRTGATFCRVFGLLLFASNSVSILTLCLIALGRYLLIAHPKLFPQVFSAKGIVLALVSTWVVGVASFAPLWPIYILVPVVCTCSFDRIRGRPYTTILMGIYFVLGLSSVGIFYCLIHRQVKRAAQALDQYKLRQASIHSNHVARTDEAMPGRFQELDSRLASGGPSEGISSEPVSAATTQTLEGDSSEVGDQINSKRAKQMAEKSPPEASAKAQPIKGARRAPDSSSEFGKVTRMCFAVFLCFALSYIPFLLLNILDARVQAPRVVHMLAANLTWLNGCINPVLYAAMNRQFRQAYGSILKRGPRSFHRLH

Row | IC50 (human GPR84 receptor) | AUC(0-t) [1] | Cmax [1] | Tmax [1] | half-life [1] | Structure (SMILES)
1 | 27.2 nM | 54400 ng·h/mL | 14800 ng/mL | 30 min | 61.8 min | O=c1nc(OCC23CC(CO2)C3)cc2n1CCc1cc(C#CC3CC3)ccc1-2 [Compound I-1, 2-((2-oxabicyclo[2.1.1]hexan-1-yl)methoxy)-9-(cyclopropylethynyl)-6,7-dihydro-4H-pyrimido[6,1-α]isoquinolin-4-one]
2 |  | 7280 ng·h/mL | 4120 ng/mL | 30 min | 229 min | O=c1nc(OC[C@@H]2COCCO2)cc2n1CCc1cc(C#CC3CC3)ccc1-2 [Control compound, reference compound]

Reference: US20240287064A1, “TRICYCLIC COMPOUND USED AS GPR84 ANTAGONIST” (Wuhan Humanwell Innovative Drug Research and Development …, priority 2021, published 2024)
